Laboratory results as given in patent publication US20210228500A1, “CELLULAR RETINOID BINDING PROTEIN ANTAGONISTS AND USES THEREOF” (CASE WESTERN RESRVE UNIVERSITY, priority 2018, published 2021).

Key:
CRBP1 [1] = target: T1, CRBP1 (Homo sapiens, UniProt P09455); assay: Fluorescence binding assay: atROL displacement from holo-CRBP1 (FRET); conditions: for binding to / interaction with CRBP1: 0-10 μM range
T1 construct: made in house
T1 sequence (P09455 1-135): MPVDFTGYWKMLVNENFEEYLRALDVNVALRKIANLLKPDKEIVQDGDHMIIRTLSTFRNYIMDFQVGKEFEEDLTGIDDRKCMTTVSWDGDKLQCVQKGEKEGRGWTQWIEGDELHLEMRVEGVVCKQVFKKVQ
Procedure: Human apo-CRBP1 was expressed and purified as described by Silvaroli et al. (J Biol Chem. 2016, 15; 291(16)) without any further modification to the established protocol.
To prepare holo-CRBP1, 3 mg of purified apoprotein was incubated for 15 min on ice with 2 molar excess of atROL (Toronto Research Chemicals) in 10 mM Tris-HCl, pH 8.0, 5% glycerol (v/v). The retinoid was delivered in acetonitrile (<1%, v/v). To remove excess of atROL, the protein solution was diluted 10× with 10 mM Tris-HCl, pH 8.0, centrifuged (36 000 g, 20 min, 4° C.) and loaded onto a 5 mL HiTrap Q HP column. Holo-CRBP1 was eluted from the column in conditions described in CRBP1 purification method. The efficiency of formation of holo-CRBP1 was examined by recording UV/vis spectrum of the repurified protein.
The apparent affinity of nonretinoid ligands was evaluated by monitoring changes in the fluorescence of holo-CRBP1. In the atROL bound form, the protein excited at 285 nm emitted fluorescence at 350 and 480 nm due to FRET between the protein scaffold and the retinoid moiety (FIG. 2A). Replacement of atROL in the binding site by tested ligands leads to disruption of FRET and consequently an increase in the fluorescence intensity at 350 nm with concomitant diminishing signal at 480 nm. All fluorescence measurements were performed using a PerkinElmer Life Sciences LS55 spectrofluorometer. The titrations were performed at 25° C. in 67 mM phosphate-buffered saline buffer, pH 7.4, containing 5% glycerol (v/v) by adding an increasing amount of an examined compound delivered in acetonitrile. […] All fluorescence spectra were corrected for the inner filter effect. The Ki values were calculated by fitting intensities of the protein fluorescence at the maximum emission (350 nm) or the intensity of retinoid fluorescence at 480 nm to the saturation single ligand-binding model. The data fitting and calculations of the Ki values were performed using SigmaPlot 11 software package (Systat Software).

CRBP1 [2] = target: T1, CRBP1; conditions: read-out: affinity for atROL; cited from earlier work
CRBP4 = target: T2, CRBP4 (Homo sapiens, UniProt Q96R05); conditions: read-out: affinity for atROL; cited from earlier work
T2 construct: thrombin cut site (residual residues after digestion) (C); 6x histidine tag (C, cleaved yes); made in house; host or cells: E. coli BL21 (DE3) (as for CRBP2)
T2 sequence (Q96R05 1-134): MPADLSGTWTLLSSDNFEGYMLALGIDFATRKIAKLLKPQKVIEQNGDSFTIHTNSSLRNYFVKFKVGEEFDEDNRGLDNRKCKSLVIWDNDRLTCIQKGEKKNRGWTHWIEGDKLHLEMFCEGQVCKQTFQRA

[3] = fluorescence atROL-replacing assay

C=C(C)[C@@H]1CCC(C)=C[C@H]1c1c(C)cc(O)cc1O [abn-CBDO, 5-methyl-4-[(1R,6R)-3-methyl-6-prop-1-en-2-ylcyclohex-2-en-1-yl]benzene-1,3-diol]
apparent affinity lowered compared with abn-CBD (CRBP1 [1]; fluorescence atROL-replacing assay, relative to abn-CBD): 4.3 times

C=C(C)[C@H]1CC=C(C)CC1 [limonene, reference compound]
binding to / interaction with CRBP1 (CRBP1 [1]; [3]): did not observe limonene interacting

C=C(C)[C@@H]1CCC(C)=CC1c1c(O)cc(C)cc1O (stereo partly drawn) [CBDO, 5-methyl-2-[(6R)-3-methyl-6-prop-1-en-2-ylcyclohex-2-en-1-yl]benzene-1,3-diol]
further increase of the Ki value (CRBP1 [1]; fluorescence atROL-replacing assay, relative to abn-CBDO): 6.3 fold

C=C(C)[C@@H]1CCC(C)=C[C@H]1c1c(OC)cc(C)cc1OC [0-1918, 1,3-dimethoxy-5-methyl-2-[(1R,6R)-3-methyl-6-prop-1-en-2-ylcyclohex-2-en-1-yl]benzene]
binding to / interaction with CRBP1 (CRBP1 [1]; [3]): abolished the meaningful binding

CC1=C(/C=C/C(C)=C/C=C/C(C)=C/CO)C(C)(C)CCC1 [atROL, all-trans-retinol]
Ki (CRBP1 [1]; reverse experiment: CRBP1 loaded with abn-CBD titrated with atROL, read-out: Ki value for replacing abn-CBD by vitamin A): ~34 nM
Kd (CRBP1 [2]): < 1 nM
Kd (CRBP4): 200 nM
